Measured values taken from publication PMC7615677 (Science translational medicine, 2023).
Where two headings read alike, the source gives them in different places.

Assay: Compartmental PK modelling and repeat-dose simulation
Set-up: species or system mice
Conditions: for AUC: read-out: AUC24 ss
Method: To support pharmacokinetic/pharmacodynamic (PKPD) analysis, data in mice and hamsters were also analyzed by compartmental modeling using Phoenix WinNonlin (version 8.2; Certara, Princeton, NJ). For each dose level, an extravascular dosing, single compartment disposition model was fit to the combined Day 1/Day 5 repeat dose plasma data. The model was parameterized with a single volume term (V/F), and with first order absorption (K01) and elimination (K10) rate constants. Initial values for the parameter estimates were obtained by fitting of the model to the Day 1 data at the lowest dose level only, and the same initial values were used across the dose range. Experimental data used in model fitting were the mean concentration-time profiles and the average dose administered to each group. The weighting scheme (1/Y2 for mouse and 1/Y for hamster) was selected based on goodness of fit of the peak region of the experimental profiles. Parameter estimates obtained through fitting were used to simulate full repeat-dose plasma concentration-time profiles with both once-daily and twice-daily (dosing at […]) administration at each dose level and treatment duration used in the efficacy studies.

[1] = mice, 3.125 mg/kg bid, 10 days, simulated
[2] = mice, 12.5 mg/kg bid, 5 days, simulated
[3] = mice, 12.5 mg/kg qd, 5 days, simulated
[4] = mice, 25 mg/kg bid, 5 days, simulated
[5] = mice, 25 mg/kg qd, 5 days, simulated
[6] = mouse, plasma, po, 3.125 mg/kg, mice, 3.125 mg/kg bid, 10 days, simulated
[7] = mouse, plasma, po, 12.5 mg/kg, mice, 12.5 mg/kg bid, 5 days, simulated
[8] = mouse, plasma, po, 12.5 mg/kg, mice, 12.5 mg/kg qd, 5 days, simulated
[9] = mouse, plasma, po, 25 mg/kg, mice, 25 mg/kg qd, 5 days, simulated
[10] = mouse, plasma, po, Mice, 3.6 mg/kg, fitted
[11] = mouse, plasma, po, Mice, 7.1 mg/kg, fitted
[12] = mouse, plasma, po, Mice, 12.7 mg/kg, fitted
[13] = mouse, plasma, po, Mice, 25 mg/kg, fitted

In the case of Cc1[nH]c2nc(N)nc(C)c2c1-c1ccc(C#N)c2c1OCO2 [DNDI-6174], the K01 (Mice, 3.6 mg/kg, fitted) is reported as 1.04 h⁻¹, the K10 (Mice, 3.6 mg/kg, fitted) is reported as 0.270 h⁻¹ and the V/F (Mice, 3.6 mg/kg, fitted) is reported as 2.76 L/kg. The K01 (Mice, 7.1 mg/kg, fitted) was 0.833 h⁻¹, the K10 (Mice, 7.1 mg/kg, fitted) was 0.246 h⁻¹ and the V/F (Mice, 7.1 mg/kg, fitted) was 1.95 L/kg. It also gave a K01 (Mice, 12.7 mg/kg, fitted) of 0.634 h⁻¹, a K10 (Mice, 12.7 mg/kg, fitted) of 0.213 h⁻¹ and a V/F (Mice, 12.7 mg/kg, fitted) of 1.43 L/kg. It also gave a K01 (Mice, 25 mg/kg, fitted) of 3.00 h⁻¹, a K10 (Mice, 25 mg/kg, fitted) of 0.158 h⁻¹ and a V/F (Mice, 25 mg/kg, fitted) of 2.40 L/kg. The “AUC24 ss (unbound)” value [1] was 1.01 µg·h/mL, the Cav ss [1] was 0.351 µg/mL and the “Cav ss (unbound)” value [1] was 0.042 µg/mL. For the same compound, the “Cmax (unbound)” value [1] was 0.098 µg/mL, the Cmin [1] was 0.023 µg/mL and the “Cmin (unbound)” value [1] was 0.003 µg/mL. For the same compound, the “Cum AUC (unbound)” value [1] was 10.1 µg·h/mL, the AUC24 ss [2] was 82.0 µg·h/mL and the “AUC24 ss (unbound)” value [2] was 9.84 µg·h/mL. For the same compound, the Cav ss [2] was 3.42 µg/mL, the “Cav ss (unbound)” value [2] was 0.410 µg/mL and the “Cmax (unbound)” value [2] was 0.780 µg/mL. The Cmin [2] was 0.520 µg/mL, the “Cmin (unbound)” value [2] was 0.062 µg/mL and the “Cum AUC” value [2] was 410 µg·h/mL. The “Cum AUC (unbound)” value [2] was 49.2 µg·h/mL, the “AUC24 ss (unbound)” value [3] was 4.92 µg·h/mL and the Cav ss [3] was 1.71 µg/mL. For the same compound, the “Cav ss (unbound)” value [3] was 0.205 µg/mL, the “Cmax (unbound)” value [3] was 0.608 µg/mL and the Cmin [3] was 0.080 µg/mL. For the same compound, the “Cmin (unbound)” value [3] was 0.010 µg/mL, the “Cum AUC (unbound)” value [3] was 24.6 µg·h/mL and the “AUC24 ss (unbound)” value [4] was 15.8 µg·h/mL. For the same compound, the Cav ss [4] was 5.47 µg/mL, the “Cav ss (unbound)” value [4] was 0.657 µg/mL and the Cmax [4] was 11700 ng/mL. The “Cmax (unbound)” value [4] was 1.41 µg/mL, the Cmin [4] was 1.14 µg/mL and the “Cmin (unbound)” value [4] was 0.137 µg/mL. For the same compound, the “Cum AUC” value [4] was 657 µg·h/mL, the “Cum AUC (unbound)” value [4] was 78.8 µg·h/mL and the “AUC24 ss (unbound)” value [5] was 7.88 µg·h/mL. The Cav ss [5] was 2.74 µg/mL, the “Cav ss (unbound)” value [5] was 0.328 µg/mL and the “Cmax (unbound)” value [5] was 1.08 µg/mL. The Cmin [5] was 0.251 µg/mL, the “Cmin (unbound)” value [5] was 0.030 µg/mL and the “Cum AUC (unbound)” value [5] was 39.4 µg·h/mL. It also gave a Cmax at 10 days [6] of 820 ng/mL, an AUC [6] of 8410 ng·h/mL and an AUC at 10 days (mouse, plasma, po, 3.125 mg/kg, mice, 3.125 mg/kg bid, 10 days, simulated, read-out: Cum AUC) of 84100 ng·h/mL. It also gave a Cmax (mouse, plasma, po, 3.6 mg/kg, Mice, 3.6 mg/kg, fitted, read-out: Cmax) of 813 ng/mL, a Cmax (mouse, plasma, po, 7.1 mg/kg, Mice, 7.1 mg/kg, fitted, read-out: Cmax) of 2190 ng/mL and a Cmax at 5 days [7] of 6500 ng/mL. It also gave an AUC [7] of 82000 ng·h/mL, an AUC at 5 days (mouse, plasma, po, 12.5 mg/kg, mice, 12.5 mg/kg bid, 5 days, simulated, read-out: Cum AUC) of 410 µg·h/mL and a Cmax at 5 days [8] of 5070 ng/mL. The AUC [8] was 41000 ng·h/mL, the AUC at 5 days (mouse, plasma, po, 12.5 mg/kg, mice, 12.5 mg/kg qd, 5 days, simulated, read-out: Cum AUC) was 205 µg·h/mL and the Cmax (mouse, plasma, po, 12.7 mg/kg, Mice, 12.7 mg/kg, fitted, read-out: Cmax) was 5100 ng/mL. For the same compound, the Cmax (mouse, plasma, po, 25 mg/kg, Mice, 25 mg/kg, fitted, read-out: Cmax) was 8830 ng/mL, the Cmax at 5 days (mouse, plasma, po, 25 mg/kg, mice, 25 mg/kg bid, 5 days, simulated) was 11700 ng/mL and the AUC at 5 days (mouse, plasma, po, 25 mg/kg, mice, 25 mg/kg bid, 5 days, simulated, read-out: Cum AUC) was 657 µg·h/mL. For the same compound, the Cmax at 5 days [9] was 9030 ng/mL, the AUC [9] was 65700 ng·h/mL and the AUC at 5 days (mouse, plasma, po, 25 mg/kg, mice, 25 mg/kg qd, 5 days, simulated, read-out: Cum AUC) was 328 µg·h/mL. The AUC(0-inf) [10] was 4840 ng·h/mL, the CL/F [10] was 12.4 mL/min/kg and the AUC(0-inf) [11] was 14800 ng·h/mL. For the same compound, the CL/F [11] was 7.98 mL/min/kg, the AUC(0-inf) [12] was 41700 ng·h/mL and the CL/F [12] was 5.08 mL/min/kg. The AUC(0-inf) [13] was 65700 ng·h/mL and the CL/F [13] was 6.35 mL/min/kg.
